The source of these data is patent US12491227B2, “Crila® and EGCG compositions for treatment of fibroids” (Altin Biosciences Corporation, priority 2022, dated 2025).

Each structure is given as a SMILES string.

Test [1] has as its target T1, Catechol-O-methyl transferase (COMT) (Homo sapiens, UniProt P21964).
T1 sequence (P21964 1-271): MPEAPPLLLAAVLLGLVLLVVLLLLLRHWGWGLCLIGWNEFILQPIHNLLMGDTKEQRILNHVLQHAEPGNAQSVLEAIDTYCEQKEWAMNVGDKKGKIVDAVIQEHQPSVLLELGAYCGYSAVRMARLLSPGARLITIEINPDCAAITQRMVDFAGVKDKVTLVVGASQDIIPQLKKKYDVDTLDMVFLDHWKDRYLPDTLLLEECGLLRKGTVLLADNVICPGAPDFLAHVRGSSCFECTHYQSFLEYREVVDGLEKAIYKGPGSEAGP
The conditions noted are these: cited from earlier work.

Another test concerns fibroid tumor. The conditions noted are these: nude mouse model; cited from earlier work.
For test [2], the system named is Human uterine leiomyoma (HuLM) cells. Briefly: MTT cell proliferation / viability assay in HuLM cells. Format: cell-based. To be noted: EGCG alone. Here is the method:
Effect of Crila® or a Crila® composition (Table 1) and/or EGCG on the Uterine Fibroid Growth: In one study, we used Human Leiomyoma (HuLM) Cells in our initial evaluation of Crila® and/or EGCG treatment. Crila®, used alone or in combination with EGCG, were evaluated for their ability to inhibit the proliferation of HuLM cells in an experimental approach as described below. Similarly, the Crila® compositions are evaluated for their ability to inhibit the proliferation of HuLM cells in an experimental approach as described below. Crila® and/or EGCG were analyzed at the various concentrations and time points specified. […] Thereafter, the extract was sterile filtered through 0.22 μm PES filter and stored at room temperature until further use. EGCG was dissolved in DMSO to make a 100 mM stock solution or in dH2O to make 10 mM stock solution. Cell proliferation assay was performed by dimethylthiazolyl diphenyltetrazolium bromide (MTT) assay. Human uterine leiomyoma (HuLM) cells were cultured in DMEM/F12 containing 10% fetal bovine serum. […] Samples were measured (from the treated wells and control wells) after 1 to 2 days, 3 days, 5 days and 7 days. […] Relative cell viability was determined by using the MTT assay. […] Absorbance was measured in Varioskan Lux microplate reader (ThermoFisher) at 570 nm. […]

The test system of another test is TGF-β3. To be noted: human fibroid cells; cited from earlier work.
In another test the test system is BMP2 gene. To be noted: EGCG-treated human fibroid cells; cited from earlier work.

Consider `O=C(O[C@@H]1Cc2c(O)cc(O)cc2O[C@@H]1c1cc(O)c(O)c(O)c1)c1cc(O)c(O)c(O)c1` [EGCG, epigallocatechin gallate], for which, in test [1], the COMT inhibitor effect result is listed as “potent COMT inhibitor effect”. In addition, the “fibroid tumor formation in vivo” value in the test on fibroid tumor is on record as “inhibiting fibroid tumor formation”. The entries for the “concentration from which HuLM cells viability is effectively reduced” value in test [2] (after 5 days treatment) and in test [2] (after 7 days treatment) were no less than 50 µM and no less than 25 µM, respectively. Moreover, the TGF-β3 production result with TGF-β3 is listed as “significantly decreased”. Further, the “increase in the expression of the BMP2 gene versus untreated control” value with BMP2 gene is given as 14 fold.
